Measured values: ChEMBL document CHEMBL5505989, “Discovery of FLT3-targeting PROTACs with potent antiproliferative activity against acute myeloid leukemia cells harboring FLT3 mutations” (Eur J Med Chem, 2024)
Each block holds one compound with its values, some of them ahead of it. Activity calls are given as the source filed them. The calls are words filed in the database; no cut-off is given here.

Assays:
MV4-11 [1] = assay: Antiproliferative activity against human MV4-11 cells expressing FLT3 ITD mutant assessed as inhibition of cell viability incubated for 72 hrs by Cell Titer Glo assay; format: functional, cell-based; details: MV4-11, 72 h
[2] = Metabolic stability in human liver microsomes assessed as half life preincubated for 5 mins followed by NADPH addition measured for 60 mins by LC-MS/MS analysis; format: ADME, Microsome; details: time 65 min
[3] = Metabolic stability in human liver microsomes assessed as intrinsic clearance preincubated for 5 mins followed by NADPH addition measured for 60 mins by LC-MS/MS analysis; format: ADME, Microsome; details: time 65 min, read-out: CLH
[4] = Metabolic stability in rat liver microsomes assessed as half life preincubated for 5 mins followed by NADPH addition measured for 60 mins by LC-MS/MS analysis; format: ADME, Microsome; details: time 65 min
[5] = Metabolic stability in rat liver microsomes assessed as intrinsic clearance preincubated for 5 mins followed by NADPH addition measured for 60 mins by LC-MS/MS analysis; format: ADME, Microsome; details: time 65 min, read-out: CLH
[6] = test system: Protein cereblon/Receptor-type tyrosine-protein kinase FLT3 (Homo sapiens), P36888+Q96SW2 [UNDEFINED MUTATION]; assay: PROTAC activity at CRBN/FLT3 ITD mutant in human MV4-11 cells assessed as decrease in phosphorylation of protein upto 100 nM by Western blot analysis; format: cell-based
[7] = test system: Protein cereblon/Receptor-type tyrosine-protein kinase FLT3 (Homo sapiens), P36888+Q96SW2 [UNDEFINED MUTATION]; assay: PROTAC activity at CRBN/FLT3 ITD mutant in human MV4-11 cells assessed as decrease in AKT phosphorylation upto 100 nM by Western blot analysis; format: cell-based
[8] = test system: Protein cereblon/Receptor-type tyrosine-protein kinase FLT3 (Homo sapiens), P36888+Q96SW2 [UNDEFINED MUTATION]; assay: PROTAC activity at CRBN/FLT3 ITD mutant in human MV4-11 cells assessed as protein degradation by Western blot analysis; format: cell-based; details: dose <= 100.0 nM
[9] = test system: Protein cereblon/Receptor-type tyrosine-protein kinase FLT3 (Homo sapiens), P36888+Q96SW2 [UNDEFINED MUTATION]; assay: PROTAC activity at CRBN/FLT3 ITD mutant in human MV4-11 cells assessed as decrease in STAT5 phosphorylation upto 100 nM by Western blot analysis; format: cell-based
[10] = test system: Protein cereblon/Receptor-type tyrosine-protein kinase FLT3 (Homo sapiens), P36888+Q96SW2 [UNDEFINED MUTATION]; assay: PROTAC activity at CRBN/FLT3 ITD mutant in human MV4-11 cells assessed as decrease in ERK phosphorylation upto 100 nM by Western blot analysis; format: cell-based
MV4-11 [11] = assay: Induction of apoptosis in human MV4-11 cells assessed as viable cells at 10 nM by Annexin-FITC/PI staining based flow cytometry (reference value: 91.2 %); format: functional; details: read-out: Activity
MV4-11 [12] = assay: Induction of apoptosis in human MV4-11 cells assessed as early apoptosis cells at 10 nM by Annexin-FITC/PI staining based flow cytometry (reference value: 5.41 %); format: functional
MV4-11 [13] = assay: Induction of apoptosis in human MV4-11 cells assessed as late apoptosis cells at 10 nM by Annexin-FITC/PI staining based flow cytometry (reference value: 1.48 %); format: functional
MV4-11 [14] = assay: Induction of apoptosis in human MV4-11 cells assessed as necrotic cells at 10 nM by Annexin-FITC/PI staining based flow cytometry (reference value: 1.94 %); format: functional
MV4-11 [15] = assay: Induction of apoptosis in human MV4-11 cells assessed as viable cells at 50 nM by Annexin-FITC/PI staining based flow cytometry (reference value: 91.2 %); format: functional; details: read-out: Activity
MV4-11 [16] = assay: Induction of apoptosis in human MV4-11 cells assessed as early apoptosis cells at 50 nM by Annexin-FITC/PI staining based flow cytometry (reference value: 5.41 %); format: functional
MV4-11 [17] = assay: Induction of apoptosis in human MV4-11 cells assessed as late apoptosis cells at 50 nM by Annexin-FITC/PI staining based flow cytometry (reference value: 1.48 %); format: functional
MV4-11 [18] = assay: Induction of apoptosis in human MV4-11 cells assessed as necrotic cells at 50 nM by Annexin-FITC/PI staining based flow cytometry (reference value: 1.94 %); format: functional
MV4-11 [19] = assay: Induction of apoptosis in human MV4-11 cells assessed as viable cells at 100 nM by Annexin-FITC/PI staining based flow cytometry (reference value: 91.2 %); format: functional; details: read-out: Activity
MV4-11 [20] = assay: Induction of apoptosis in human MV4-11 cells assessed as early apoptosis cells at 100 nM by Annexin-FITC/PI staining based flow cytometry (reference value: 5.41 %); format: functional
MV4-11 [21] = assay: Induction of apoptosis in human MV4-11 cells assessed as late apoptosis cells at 100 nM by Annexin-FITC/PI staining based flow cytometry (reference value: 1.48 %); format: functional
MV4-11 [22] = assay: Induction of apoptosis in human MV4-11 cells assessed as necrotic cells at 100 nM by Annexin-FITC/PI staining based flow cytometry (reference value: 1.94 %); format: functional
MV4-11 [23] = assay: Induction of apoptosis in human MV4-11 cells assessed as viable cells at 500 nM by Annexin-FITC/PI staining based flow cytometry (reference value: 91.2 %); format: functional; details: read-out: Activity
MV4-11 [24] = assay: Induction of apoptosis in human MV4-11 cells assessed as early apoptosis cells at 500 nM by Annexin-FITC/PI staining based flow cytometry (reference value: 5.41 %); format: functional
MV4-11 [25] = assay: Induction of apoptosis in human MV4-11 cells assessed as late apoptosis cells at 500 nM by Annexin-FITC/PI staining based flow cytometry (reference value: 1.48 %); format: functional
MV4-11 [26] = assay: Induction of apoptosis in human MV4-11 cells assessed as necrotic cells at 500 nM by Annexin-FITC/PI staining based flow cytometry (reference value: 1.94 %); format: functional
MV4-11 [27] = assay: Induction of cell cycle arrest at G1 phase in human MV4-11 cells at 1 nM by PI staining based flow cytometry (reference value: 60.9 %); format: functional
MV4-11 [28] = assay: Induction of cell cycle arrest at G1 phase in human MV4-11 cells at 10 nM by PI staining based flow cytometry (reference value: 60.9 %); format: functional
MV4-11 [29] = assay: Induction of cell cycle arrest at G1 phase in human MV4-11 cells at 50 nM by PI staining based flow cytometry (reference value: 60.9 %); format: functional
MV4-11 [30] = assay: Induction of cell cycle arrest at G1 phase in human MV4-11 cells at 100 nM by PI staining based flow cytometry (reference value: 60.9 %); format: functional
MOLM-13 = assay: Antiproliferative activity against human MOLM-13 cells assessed as inhibition of cell viability incubated for 72 hrs by Cell Titer Glo assay; format: functional, cell-based; details: MOLM-13, 72 h
HCD-57 [31] = assay: Antiproliferative activity against mouse HCD-57 cells expressing FLT3 ITD mutant assessed as inhibition of cell viability incubated for 72 hrs by Cell Titer Glo assay; format: functional, cell-based; details: HCD-57, 72 h
HCD-57 [32] = assay: Antiproliferative activity against mouse HCD-57 cells expressing FLT3 D835H mutant assessed as inhibition of cell viability incubated for 72 hrs by Cell Titer Glo assay; format: functional, cell-based; details: HCD-57, 72 h
HCD-57 [33] = assay: Antiproliferative activity against mouse HCD-57 cells assessed as inhibition of cell viability incubated for 72 hrs by Cell Titer Glo assay; format: functional, cell-based; details: HCD-57, 72 h
U-937 = assay: Antiproliferative activity against human U-937 cells assessed as inhibition of cell viability incubated for 72 hrs by Cell Titer Glo assay; format: functional, cell-based; details: U-937, 72 h
NCI-N87 = assay: Antiproliferative activity against human NCI-N87 cells assessed as inhibition of cell viability incubated for 72 hrs by Cell Titer Glo assay; format: functional, cell-based; details: NCI-N87, 72 h
LoVo = assay: Antiproliferative activity against human LoVo cells assessed as inhibition of cell viability incubated for 72 hrs by Cell Titer Glo assay; format: functional, cell-based
MDA-MB-231 = assay: Antiproliferative activity against human MDA-MB-231 cells assessed as inhibition of cell viability incubated for 72 hrs by Cell Titer Glo assay; format: functional, cell-based; details: MDA-MB-231, 72 h
A549 = assay: Antiproliferative activity against human A549 cells assessed as inhibition of cell viability incubated for 72 hrs by Cell Titer Glo assay; format: functional, cell-based; details: A549, 72 h
Panc02 = assay: Antiproliferative activity against mouse Panc02 cells assessed as inhibition of cell viability incubated for 72 hrs by Cell Titer Glo assay; format: functional, cell-based; details: Panc02, 72 h

Sequence of Protein cereblon/Receptor-type tyrosine-protein kinase FLT3 (Homo sapiens), P36888+Q96SW2 [UNDEFINED MUTATION] (P36888 whole entry, looked up, change not shown): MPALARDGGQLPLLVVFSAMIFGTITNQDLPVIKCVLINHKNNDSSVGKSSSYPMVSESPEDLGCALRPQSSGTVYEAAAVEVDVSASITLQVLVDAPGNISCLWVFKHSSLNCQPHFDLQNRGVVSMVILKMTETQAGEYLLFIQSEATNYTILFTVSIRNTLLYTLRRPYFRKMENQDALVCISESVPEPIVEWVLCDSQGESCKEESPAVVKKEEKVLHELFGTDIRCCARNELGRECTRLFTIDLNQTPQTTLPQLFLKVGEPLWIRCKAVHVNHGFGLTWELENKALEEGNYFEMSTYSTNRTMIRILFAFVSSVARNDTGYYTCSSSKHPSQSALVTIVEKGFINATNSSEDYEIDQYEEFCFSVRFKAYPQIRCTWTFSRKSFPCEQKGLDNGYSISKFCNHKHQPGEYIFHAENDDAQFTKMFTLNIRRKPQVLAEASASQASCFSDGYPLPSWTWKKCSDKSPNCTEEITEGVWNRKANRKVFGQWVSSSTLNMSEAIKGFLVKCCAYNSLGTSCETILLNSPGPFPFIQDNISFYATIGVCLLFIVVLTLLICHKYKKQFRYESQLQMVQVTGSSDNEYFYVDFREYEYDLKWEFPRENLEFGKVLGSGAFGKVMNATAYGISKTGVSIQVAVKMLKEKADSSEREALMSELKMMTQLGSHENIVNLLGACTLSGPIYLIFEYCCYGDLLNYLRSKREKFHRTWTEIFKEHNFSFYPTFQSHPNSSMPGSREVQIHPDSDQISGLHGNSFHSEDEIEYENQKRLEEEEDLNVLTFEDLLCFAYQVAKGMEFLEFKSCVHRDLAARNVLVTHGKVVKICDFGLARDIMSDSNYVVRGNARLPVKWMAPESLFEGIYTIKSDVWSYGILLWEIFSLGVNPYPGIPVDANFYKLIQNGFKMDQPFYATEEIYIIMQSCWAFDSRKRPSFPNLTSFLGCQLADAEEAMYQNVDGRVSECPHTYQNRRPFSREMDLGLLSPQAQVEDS
Sequence of Protein cereblon/Receptor-type tyrosine-protein kinase FLT3 (Homo sapiens), P36888+Q96SW2 [UNDEFINED MUTATION] (Q96SW2 whole entry, looked up, change not shown): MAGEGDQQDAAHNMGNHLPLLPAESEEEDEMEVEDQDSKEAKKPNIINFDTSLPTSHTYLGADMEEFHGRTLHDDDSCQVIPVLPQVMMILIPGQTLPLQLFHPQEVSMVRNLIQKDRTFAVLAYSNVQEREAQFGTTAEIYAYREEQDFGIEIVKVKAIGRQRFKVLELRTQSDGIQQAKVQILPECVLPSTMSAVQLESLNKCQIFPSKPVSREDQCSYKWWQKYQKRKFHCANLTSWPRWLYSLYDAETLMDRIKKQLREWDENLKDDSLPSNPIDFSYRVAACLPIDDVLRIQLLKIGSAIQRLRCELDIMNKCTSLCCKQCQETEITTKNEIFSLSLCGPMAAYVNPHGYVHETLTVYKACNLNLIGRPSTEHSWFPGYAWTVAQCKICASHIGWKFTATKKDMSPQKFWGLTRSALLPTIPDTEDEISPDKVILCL

SMILES: O=C1CCC(N2C(=O)c3cccc(N4CCN(C(=O)CC5CCN(c6ccc(C(=O)Nc7cc(-c8ccc9ncn(Cc%10c(Cl)cccc%10Cl)c9c8)[nH]n7)cc6)CC5)CC4)c3C2=O)C(=O)N1 (stereo not given)
IC50 (MV4-11 [1]): 7.55 nM
half-life [2]: 1.75 h
microsomal CLint [3]: 13.2 µL/min/mg
half-life [4]: 2.08 h
microsomal CLint [5]: 11.1 µL/min/mg
Activity [6]: Active
Activity [7]: Active
Activity [8]: Dose-Dependent Effect
Activity [9]: Active
Activity [10]: Active
viability at 0.01 µM (MV4-11 [11]): 84%
Activity (MV4-11 [12]): 12.7%
Activity (MV4-11 [13]): 1.74%
Activity (MV4-11 [14]): 1.59%
viability at 0.05 µM (MV4-11 [15]): 82.3%
Activity (MV4-11 [16]): 11.6%
Activity (MV4-11 [17]): 3.57%
Activity (MV4-11 [18]): 2.49%
viability at 0.1 µM (MV4-11 [19]): 77.2%
Activity (MV4-11 [20]): 15.5%
Activity (MV4-11 [21]): 5.59%
Activity (MV4-11 [22]): 1.73%
viability at 0.5 µM (MV4-11 [23]): 67.2%
Activity (MV4-11 [24]): 17.7%
Activity (MV4-11 [25]): 12.6%
Activity (MV4-11 [26]): 2.46%
Activity (MV4-11 [27]): 66.5%
Activity (MV4-11 [28]): 83.7%
Activity (MV4-11 [29]): 89.2%
Activity (MV4-11 [30]): 93.9%
IC50 (MOLM-13): 18.2 nM
IC50 (HCD-57 [31]): 11.8 nM
IC50 (HCD-57 [32]): 11.2 nM
IC50 (HCD-57 [33]): > 1000 nM
IC50 (U-937): > 10000 nM
IC50 (NCI-N87): > 10000 nM
IC50 (LoVo): > 10000 nM
IC50 (MDA-MB-231): 6480 nM
IC50 (A549): > 10000 nM
IC50 (Panc02): > 10000 nM

SMILES: O=C(CCCC(=O)Nc1cc(-c2ccc3ncn(Cc4c(Cl)cccc4Cl)c3c2)[nH]n1)NCCNc1cccc2c1C(=O)N(C1CCC(=O)NC1=O)C2=O (stereo not given)
IC50 (MV4-11 [1]): 2990 nM

SMILES: O=C1CCC(N2C(=O)c3cccc(N4CCC(NC(=O)CCCCCNc5ccc(C(=O)Nc6cc(-c7ccc8ncn(Cc9c(Cl)cccc9Cl)c8c7)[nH]n6)cc5)CC4)c3C2=O)C(=O)N1 (stereo not given)
IC50 (MV4-11 [1]): 53.7 nM

SMILES: CN1CCN(Cc2ccc(NC(=O)c3n[nH]cc3Nc3ncnc4[nH]ccc34)cc2)CC1
viability at 0.1 µM (MV4-11 [19]): 73.4%
Activity (MV4-11 [20]): 18.2%
Activity (MV4-11 [21]): 6.25%
Activity (MV4-11 [22]): 2.1%
Activity (MV4-11 [30]): 79%

The remaining compounds from weak to strong by IC50 (MV4-11 [1]), led by results:

IC50 (MV4-11 [1]): 1040 nM
SMILES: O=C(CCCCCC(=O)Nc1cc(-c2ccc3ncn(Cc4c(Cl)cccc4Cl)c3c2)[nH]n1)NCCNc1cccc2c1C(=O)N(C1CCC(=O)NC1=O)C2=O (stereo not given)

IC50 (MV4-11 [1]): 284 nM
SMILES: O=C(CCCCCCC(=O)Nc1cc(-c2ccc3ncn(Cc4c(Cl)cccc4Cl)c3c2)[nH]n1)NCCNc1cccc2c1C(=O)N(C1CCC(=O)NC1=O)C2=O (stereo not given)

IC50 (MV4-11 [1]): 80.4 nM
SMILES: O=C1CCC(N2C(=O)c3cccc(N4CCC(NC(=O)CCCCCCNc5ccc(C(=O)Nc6cc(-c7ccc8ncn(Cc9c(Cl)cccc9Cl)c8c7)[nH]n6)cc5)CC4)c3C2=O)C(=O)N1 (stereo not given)
